{"source": "paper PMC7127754", "about": "(Bioorganic & Medicinal Chemistry, 2008)", "target": "SARS-CoV 3CL protease (Severe acute respiratory syndrome coronavirus, UniProt P0C6X7)", "assay": "biochemical", "conditions": "IC50 (inhibition of SARS-CoV 3CL protease)", "note": "pIC50: −log10 of the molar value.", "data": [{"smiles": "CCCCCCCCC(=O)N[C@@H](CC(C)C)C(=O)NC(Cc1ccccc1)C(=O)C(F)(F)F", "note": "(mixture of isomers) [Compound 5g, 3-{N-[N-CH3(CH2)7(C?O)-L-Leu]}-4-phenyl-1,1,1-trifluorobutan-2-one]", "values": [{"measurement": "pIC50", "value": "< 4.30"}]}, {"smiles": "C[C@H](NC(=O)CC[C@H](NC(=O)OC(C)(C)C)C(=O)OC(C)(C)C)C(=O)NCC(=O)C(F)(F)F", "note": "[Compound 5d, 3-{N-[N-tert-Butoxycarbonyl-L-γGlu(OtBu)-L-Ala]}-1,1,1-trifluoropropan-2-one]", "values": [{"measurement": "pIC50", "value": 4.40}]}]}
